Among the data in patent US9221832B2, “Heterocyclic amide derivatives as P2X7 receptor antagonists” (ACTELION PHARMACEUTICALS LTD., priority 2011, dated 2015) are IC50 values, retold here.

The target of this experiment is human recombinant P2X7 receptor (Homo sapiens (Human), UniProt Q99572). The experiment can be described thus: YO-PRO assay: P2X7 receptor antagonistic activity. Type of experiment: cell-based. To be noted: HEK cells expressing human P2X7. As for the experimental part:
The P2X7 receptor antagonistic activity of the compounds of formula (I) is determined in accordance with the following experimental method.
Cell Line Generation and YO-PRO Assay
Cell line generation was performed in general according to established molecular cloning protocols. Specifically, RNA was extracted from human whole blood using the Qiagen RNeasy kit (Qiagen, CH) according to the manufacturer's instructions. Subsequently cDNA was made (Superscript II, Invitrogen AG, CH) and the human P2X7 gene (genbank ref. BC011913) was amplified with the following primers: […] and […]. The amplified sequence was subsequently ligated into a pcDNA3.1 (+) NotI, NheI digested plasmid. […] Following a 24 h exposure to DNA, cells were trypsinized and re-seeded at low density in the presence of 250 μg Geneticin. Geneticin resistant cells were then selected during two consecutive rounds of cloning by serial limiting dilution with visual inspection. Individual clones were screened for P2X7 expression by applying ATP and recording the resultant uptake of YO-PRO1. Specific cell clones were chosen based on RNA and protein expression. HEK cells stably expressing P2X7 were used to screen drugs using the YO-PRO1 assay. Cells were grown to confluency in adherent culture at 37° C. in a humidified 5% CO2 incubator (split 1/5 every 3-4 days with DMEM, 10% FCS, 1% Penicillin/Streptomycin, 250 μg/ml Geneticin). Adherent cells were detached by incubation with Trypsine (1 ml per 165 cm^2 dish) for 2 minutes, then washed off with 10 ml PBS (without Mg^2+ and Ca^2+), and resuspended in DMEM, 10% FCS, 1% Penicillin/Streptomycin, no Geneticin. […] During this time period, four time points were taken. Each time point comprised the average of several measurements made within a few seconds. […] The FLIPR tetra was equipped with Molecular Devices Screen Works system control software to define and run experimental protocols. […] For IC50 measurements the maximum intensity is plotted against the concentration of compound to determine IC50 values.

pIC50: −log10 of the molar value.

Sequence of human recombinant P2X7 receptor (Q99572 whole entry): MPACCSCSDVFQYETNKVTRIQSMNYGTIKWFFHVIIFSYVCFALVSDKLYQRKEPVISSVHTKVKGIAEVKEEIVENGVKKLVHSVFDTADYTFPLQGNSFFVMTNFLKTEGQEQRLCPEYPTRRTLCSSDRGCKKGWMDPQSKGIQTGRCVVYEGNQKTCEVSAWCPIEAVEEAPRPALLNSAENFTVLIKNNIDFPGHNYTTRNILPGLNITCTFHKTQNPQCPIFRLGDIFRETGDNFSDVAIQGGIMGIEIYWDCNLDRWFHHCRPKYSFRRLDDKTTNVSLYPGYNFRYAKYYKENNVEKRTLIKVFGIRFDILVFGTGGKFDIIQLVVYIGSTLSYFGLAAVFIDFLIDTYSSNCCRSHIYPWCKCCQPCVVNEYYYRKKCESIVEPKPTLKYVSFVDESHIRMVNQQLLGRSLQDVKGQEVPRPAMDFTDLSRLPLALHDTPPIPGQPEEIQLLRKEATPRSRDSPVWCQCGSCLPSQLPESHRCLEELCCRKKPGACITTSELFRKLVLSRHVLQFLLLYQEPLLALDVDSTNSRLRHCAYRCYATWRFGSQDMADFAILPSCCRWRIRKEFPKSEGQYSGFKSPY

On to `O=C(Cc1cc(F)c(Cl)cc1Cl)NC1CCOc2ncccc21` (racemic) [Example 57, rac-2-(2,4-Dichloro-5-fluoro-phenyl)-N-(3,4-dihydro-2H-pyrano[2,3-b]pyridin-4-yl)-acetamide], for which the negative-log IC50 (pIC50) was 5.83.
In the case of `Cc1cc(Cl)cc(Cl)c1CC(=O)NC1COc2nnccc21` (racemic) [Example 110, rac-2-(2,4-Dichloro-6-methyl-phenyl)-N-(5,6-dihydro-furo[2,3-c]pyridazin-5-yl)-acetamide], the pIC50 was 8.17.
With `O=C(Cc1ccc(Cl)cc1Cl)NC1COc2cnc(Cl)cc21` (racemic) [Example 116, rac-N-(5-Chloro-2,3-dihydro-furo[2,3-c]pyridin-3-yl)-2-(2,4-dichloro-phenyl)-acetamide], the pIC50 is 6.46.
To `CCc1cc(Cl)cc(Cl)c1CC(=O)NC1COc2ncccc21` (racemic) [Example 32, rac-2-(2,4-Dichloro-6-ethyl-phenyl)-N-(2,3-dihydro-furo[2,3-b]pyridin-3-yl)-acetamide] belongs 7.64.
With `Cc1cc(Cl)cc(Cl)c1CC(=O)NC1COc2nccc(C)c21` (racemic) [Example 138, rac-2-(2,4-Dichloro-6-methyl-phenyl)-N-(4-methyl-2,3-dihydro-furo[2,3-b]pyridin-3-yl)-acetamide], the negative logarithm of the IC50 (pIC50) is 7.00.
In the case of `Cc1ccc(F)c(CC(=O)NC2COc3ncccc32)c1Cl` (racemic) [Example 42, rac-2-(2-Chloro-6-fluoro-3-methyl-phenyl)-N-(2,3-dihydro-furo[2,3-b]pyridin-3-yl)-acetamide] it was 6.19; in that of `O=C(Cc1c(F)cccc1C(F)(F)F)NC1COc2ncccc21` (racemic) [Example 68, rac-N-(2,3-Dihydro-furo[2,3-b]pyridin-3-yl)-2-(2-fluoro-6-trifluoromethyl-phenyl)-acetamide], 5.74.
As to `Cc1cc(Cl)cc(Cl)c1CC(=O)NC1CCOc2ncccc21` (racemic) [Example 8, rac-2-(2,4-Dichloro-6-methyl-phenyl)-N-(3,4-dihydro-2H-pyrano[2,3-b]pyridin-4-yl)-acetamide], the negative logarithm of the IC50 (pIC50) was 7.37.
To `O=C(Cc1c(F)ccc(F)c1Cl)NC1COc2ncccc21` (racemic) [Example 78, rac-2-(2-Chloro-3,6-difluoro-phenyl)-N-(2,3-dihydro-furo[2,3-b]pyridin-3-yl)-acetamide] belongs 6.18; to `Cc1cc(Cl)cc(Cl)c1CC(=O)NC1CCOc2ncccc21` (single isomer, unassigned) [Example 28, 2-(2,4-Dichloro-6-methyl-phenyl)-N-(3,4-dihydro-2H-pyrano[2,3-b]pyridin-4-yl)-acetamide], 7.54.
`Cc1cncc2c1C(NC(=O)Cc1cccc(C(F)(F)F)c1Cl)CO2` (racemic) [Example 128, rac-2-(2-Chloro-3-trifluoromethyl-phenyl)-N-(4-methyl-2,3-dihydro-furo[2,3-c]pyridin-3-yl)-acetamide]: the pIC50 was 8.25.
For the compound `Cc1cc(Cl)cc(Cl)c1CC(=O)NC1COc2cnccc21` (single isomer, unassigned) [Example 102, 2-(2,4-Dichloro-6-methyl-phenyl)-N-2,3-dihydro-furo[2,3-c]pyridin-3-yl-acetamide], the pIC50 is 8.66.
On to `N#Cc1ccc(CC(=O)NC2COc3ncccc32)c(Cl)c1` (racemic) [Example 96, rac-2-(2-Chloro-4-cyano-phenyl)-N-(2,3-dihydro-furo[2,3-b]pyridin-3-yl)-acetamide], for which the negative-log IC50 (pIC50) was 6.91.
Take `O=C(Cc1cccc(C(F)(F)F)c1Cl)NC1COc2ncccc21` (single isomer, unassigned) [Example 73, 2-(2-Chloro-3-trifluoromethyl-phenyl)-N-(2,3-dihydro-furo[2,3-b]pyridin-3-yl)-acetamide]: the pIC50 is 8.00.
Consider `O=C(Cc1cccc(C(F)(F)F)c1Cl)NC1COc2c1ccc[n+]2[O-]` (racemic) [Example 129, rac-2-(2-Chloro-3-trifluoromethyl-phenyl)-N-(7-oxy-2,3-dihydro-furo[2,3-b]pyridin-3-yl)-acetamide], for which the pIC50 is 6.91.
To `COc1nccc2c1OCC2NC(=O)Cc1ccc(Cl)cc1Cl` (racemic) [Example 105, rac-2-(2,4-Dichloro-phenyl)-N-(7-methoxy-2,3-dihydro-furo[2,3-c]pyridin-3-yl)-acetamide] belongs 6.61.
To `O=C(Cc1ccc(F)cc1F)NC1COc2ncccc21` (racemic) [Example 17, rac-2-(2,4-Difluoro-phenyl)-N-(2,3-dihydro-furo[2,3-b]pyridin-3-yl)-acetamide] belongs 6.28.
In the case of `O=C(Cc1cccc(C(F)(F)F)c1Cl)NC1COc2cnc(Cl)cc21` (racemic) [Example 115, rac-N-(5-Chloro-2,3-dihydro-furo[2,3-c]pyridin-3-yl)-2-(2-chloro-3-trifluoromethyl-phenyl)-acetamide] it was 7.09; in that of `N#Cc1ccc(CC(=O)NC2CCOc3ncccc32)cc1` (racemic) [Example 45, rac-2-(4-Cyano-phenyl)-N-(3,4-dihydro-2H-pyrano[2,3-b]pyridin-4-yl)-acetamide], below 5.19; in that of `O=C(Cc1cccc(C(F)(F)F)c1Cl)NC1COc2c[n+]([O-])ccc21` (racemic) [Example 148, rac-2-(2-Chloro-3-trifluoromethyl-phenyl)-N-(6-oxy-2,3-dihydro-furo[2,3-c]pyridin-3-yl)-acetamide], 6.78.
`O=C(Cc1c(F)ccc(Cl)c1Cl)NC1COc2ncccc21` (racemic) [Example 67, rac-2-(2,3-Dichloro-6-fluoro-phenyl)-N-(2,3-dihydro-furo[2,3-b]pyridin-3-yl)-acetamide]: the pIC50 was 6.68.
On to `CC(C(=O)NC1COc2ncccc21)c1ccc(Cl)cc1Cl` (single isomer, unassigned) [Example 95, 2-(2,4-Dichloro-phenyl)-N-2,3-dihydro-furo[2,3-b]pyridin-3-yl-propionamide], for which the pIC50 is 6.98.
Take `O=C(Cc1ccc(C(F)(F)F)cc1)NC1CCOc2ncccc21` (racemic) [Example 46, rac-N-(3,4-Dihydro-2H-pyrano[2,3-b]pyridin-4-yl)-2-(4-trifluoromethyl-phenyl)-acetamide]: the pIC50 is 5.87.
For `CC(C(=O)NC1COc2ncccc21)c1ccc(Cl)cc1Cl` (single isomer, unassigned) [Example 94, 2-(2,4-Dichloro-phenyl)-N-2,3-dihydro-furo[2,3-b]pyridin-3-yl-propionamide], the pIC50 was 7.96.
For the compound `O=C(CCc1ccc(Cl)cc1Cl)NC1CCOc2ncccc21` (racemic) [Example 65, rac-3-(2,4-Dichloro-phenyl)-N-(3,4-dihydro-2H-pyrano[2,3-b]pyridin-4-yl)-propionamide], the pIC50 is 5.52.
Take `N#Cc1ccccc1CC(=O)NC1COc2ncccc21` (racemic) [Example 10, rac-2-(2-Cyano-phenyl)-N-(2,3-dihydro-furo[2,3-b]pyridin-3-yl)-acetamide]: the pIC50 is 5.53.
Consider `N#Cc1c(Cl)ccc(CC(=O)NC2COc3ncccc32)c1Cl` (racemic) [Example 112, rac-2-(2,4-Dichloro-3-cyano-phenyl)-N-(2,3-dihydro-furo[2,3-b]pyridin-3-yl)-acetamide], for which the negative-log IC50 (pIC50) was 6.66.
Regarding `O=C(Cc1cccc(C(F)F)c1Cl)NC1COc2ncccc21` (racemic) [Example 114, rac-2-(2-Chloro-3-difluoromethyl-phenyl)-N-(2,3-dihydro-furo[2,3-b]pyridin-3-yl)-acetamide], the negative-log IC50 (pIC50) is 8.12.
To `O=C(Cc1ccc(Oc2ccccc2)cc1)NC1COc2ncccc21` (racemic) [Example 36, rac-N-(2,3-Dihydro-furo[2,3-b]pyridin-3-yl)-2-(4-phenoxy-phenyl)-acetamide] belongs 5.83; to `CC(=O)c1cccc(CC(=O)NC2COc3ncccc32)c1Cl` (racemic) [Example 111, rac-2-(3-Acetyl-2-chloro-phenyl)-N-(2,3-dihydro-furo[2,3-b]pyridin-3-yl)-acetamide], 6.38.
With `O=C(NC1COc2ncccc21)C1CCc2cc(Cl)cc(Cl)c21` (stereo not drawn) [Example 130, 5,7-dichloro-N-(2,3-dihydrofuro[2,3-b]pyridin-3-yl)-2,3-dihydro-1H-indene-1-carboxamide], the pIC50 is 6.86.
With `O=C(Cc1ccc(C(F)(F)F)cc1Cl)NC1COc2ncccc21` (racemic) [Example 88, rac-2-(2-Chloro-4-trifluoromethyl-phenyl)-N-(2,3-dihydro-furo[2,3-b]pyridin-3-yl)-acetamide], the negative logarithm of the IC50 (pIC50) was 7.14.
To `O=C(Cc1c(F)cc(F)cc1F)NC1COc2ncccc21` (racemic) [Example 22, rac-N-(2,3-Dihydro-furo[2,3-b]pyridin-3-yl)-2-(2,4,6-trifluoro-phenyl)-acetamide] belongs 6.05.
